Assay results: ChEMBL document CHEMBL3046227, “Synthesis and evaluation in vitro of 1-[2-(10-dihydroartemisininoxy) ethyl]-3-phenylurea derivatives as potential agents against cancer” (Med Chem Res, 2013)

Tests used:
K562 = assay: Cytotoxicity against Homo sapiens (human) K562 cells after 48 hr by MTT assay; format: functional, cell-based; details: K562, 48 h
HepG2 = assay: Cytotoxicity against Homo sapiens (human) HepG2 cells after 48 hr by MTT assay; format: functional, cell-based; details: HepG2, 48 h
A549 [1] = assay: Ratio of dihydroartemisinin IC50 to compound IC50 for Homo sapiens (human) A549 cells; format: functional
HCT-116 [2] = assay: Ratio of dihydroartemisinin IC50 to compound IC50 for Homo sapiens (human) HCT116 cells; format: functional
MCF7 [3] = assay: Cytotoxicity against Homo sapiens (human) MCF7 cells after 48 hr by MTT assay; format: functional, cell-based; details: MCF7, 48 h
A549 [4] = assay: Cytotoxicity against Homo sapiens (human) A549 cells after 48 hr by MTT assay; format: functional, cell-based; details: A549, 48 h
U-937 = assay: Cytotoxicity against Homo sapiens (human) U937 cells after 48 hr by MTT assay; format: functional, cell-based; details: U-937, 48 h
HT-1080 = assay: Cytotoxicity against Homo sapiens (human) HT1080 cells after 48 hr by MTT assay; format: functional, cell-based; details: HT-1080, 48 h
HCT-116 [5] = assay: Cytotoxicity against Homo sapiens (human) HCT116 cells after 48 hr by MTT assay; format: functional, cell-based; details: HCT-116, 48 h
HL-60 = assay: Cytotoxicity against Homo sapiens (human) HL60 cells after 48 hr by MTT assay; format: functional, cell-based; details: HL-60, 48 h
HeLa = assay: Cytotoxicity against Homo sapiens (human) HeLa cells after 48 hr by MTT assay; format: functional, cell-based
[6] = Cytotoxicity against Homo sapiens (human) A375-S2 cells after 48 hr by MTT assay; format: functional, cell-based; details: A375-S2, 48 h
MCF7 [7] = assay: Ratio of dihydroartemisinin IC50 to compound IC50 for Homo sapiens (human) MCF7 cells; format: functional

Structure (SMILES) | IC50 (K562) [µM] | IC50 (HepG2) [µM] | Ratio IC50 (A549 [1]) | Ratio IC50 (HCT-116 [2]) | IC50 (MCF7 [3]) [µM] | IC50 (A549 [4]) [µM] | IC50 (U-937) [µM] | IC50 (HT-1080) [µM] | IC50 (HCT-116 [5]) [µM] | IC50 (HL-60) [µM] | IC50 (HeLa) [µM] | IC50 [6] [µM] | Ratio IC50 (MCF7 [7])
Cc1ccc(C)c(NC(=O)NCCO[C@H]2O[C@@H]3O[C@@]4(C)CC[C@H]5[C@H](C)CC[C@@H]([C@H]2C)[C@@]35OO4)c1 | 23 | 23.2 | 1.2 | 1.7 | 42.2 | 33.7 | 2.51 | > 100 | 47.5 | < 1 | 31 | > 100 | –
Cc1c(Cl)cccc1NC(=O)NCCO[C@H]1O[C@@H]2O[C@@]3(C)CC[C@H]4[C@H](C)CC[C@@H]([C@H]1C)[C@@]24OO3 | 9.45 | 40.6 | 1.2 | 1.7 | 36.8 | 26.2 | 2.59 | > 100 | 22.7 | < 1 | 25.7 | > 100 | –
C[C@H]1[C@@H](OCCNC(=O)Nc2ccc(F)cc2)O[C@@H]2O[C@@]3(C)CC[C@H]4[C@H](C)CC[C@@H]1[C@@]24OO3 | 38.4 | 26.2 | 1.2 | 1.7 | 46.8 | 43.7 | 25.2 | 26.8 | 43.7 | 3.64 | 35.2 | 33.7 | –
C[C@H]1[C@@H](OCCNC(=O)Nc2ccc(Cl)cc2)O[C@@H]2O[C@@]3(C)CC[C@H]4[C@H](C)CC[C@@H]1[C@@]24OO3 | 32.5 | 36.3 | 1.2 | 1.7 | 32.8 | 42 | 9.99 | 43.9 | 39.5 | < 1 | 20.6 | 41 | –
C[C@H]1[C@H](OCCNC(=O)Nc2ccc(C(F)(F)F)cc2)O[C@@H]2O[C@@]3(C)CC[C@H]4[C@H](C)CC[C@@H]1[C@@]24OO3 | 26.1 | 11.7 | 1.2 | 1.7 | > 100 | 37.1 | < 1 | > 100 | 46.4 | < 1 | 31.7 | > 100 | –
C[C@H]1[C@@H](OCCNC(=O)Nc2ccc([N+](=O)[O-])cc2)O[C@@H]2O[C@@]3(C)CC[C@H]4[C@H](C)CC[C@@H]1[C@@]24OO3 | 32.1 | 39.6 | 1.2 | 1.7 | 42.2 | 53 | 7.75 | 29.8 | 44.4 | 1.2 | 23 | 35.9 | –
C[C@H]1[C@@H](OCCNC(=O)Nc2ccc(Br)cc2)O[C@@H]2O[C@@]3(C)CC[C@H]4[C@H](C)CC[C@@H]1[C@@]24OO3 | 27.6 | 23.2 | 1.2 | 1.7 | 25.6 | 34.2 | 5.2 | > 100 | 26.7 | < 1 | 18.2 | > 100 | –
C[C@H]1[C@H](OCCNC(=O)Nc2ccc(Br)cc2)O[C@@H]2O[C@@]3(C)CC[C@H]4[C@H](C)CC[C@@H]1[C@@]24OO3 | 34.6 | 24.3 | 1.2 | 1.7 | 25.9 | 39.4 | < 1 | 35.2 | 35 | < 1 | 23.9 | 23.9 | –
C[C@H]1[C@H](OCCNC(=O)Nc2ccc(Cl)cc2)O[C@@H]2O[C@@]3(C)CC[C@H]4[C@H](C)CC[C@@H]1[C@@]24OO3 | 37.9 | 16.6 | 1.2 | 1.7 | 25.9 | 35.5 | 2.6 | 40.3 | 37.8 | < 1 | 19.7 | 9.25 | –
C[C@H]1[C@H](OCCNC(=O)Nc2ccc([N+](=O)[O-])cc2)O[C@@H]2O[C@@]3(C)CC[C@H]4[C@H](C)CC[C@@H]1[C@@]24OO3 | > 100 | 34.3 | 1.2 | 1.7 | 94.7 | 49.6 | 9.26 | > 100 | 41 | < 1 | 64.2 | > 100 | –
COc1ccc(NC(=O)NCCO[C@H]2O[C@@H]3O[C@@]4(C)CC[C@H]5[C@H](C)CC[C@@H]([C@H]2C)[C@@]35OO4)cc1 | 55.8 | 46.2 | 1.2 | 1.7 | > 100 | 63.2 | 23.7 | > 100 | 50.7 | 2.53 | 61.5 | > 100 | –
C[C@H]1[C@@H](OCCNC(=O)Nc2ccc(C(F)(F)F)cc2)O[C@@H]2O[C@@]3(C)CC[C@H]4[C@H](C)CC[C@@H]1[C@@]24OO3 | 6.97 | 11.2 | 1.2 | 1.7 | 11.6 | 29.5 | 1.1 | > 100 | 31.3 | < 1 | 16.6 | > 100 | 4
Cc1ccccc1NC(=O)NCCO[C@H]1O[C@@H]2O[C@@]3(C)CC[C@H]4[C@H](C)CC[C@@H]([C@H]1C)[C@@]24OO3 | 29.4 | 53.2 | 1.2 | 1.7 | 88.9 | 41.7 | 16.2 | > 100 | 53.8 | 2.11 | 64.7 | > 100 | –
C[C@H]1[C@@H](OCCNC(=O)Nc2ccccc2)O[C@@H]2O[C@@]3(C)CC[C@H]4[C@H](C)CC[C@@H]1[C@@]24OO3 | 25 | 34 | 1.2 | 1.7 | 43.7 | 63.3 | 6.06 | > 100 | 53.8 | 3 | 25.1 | > 100 | –
C[C@H]1[C@@H](O)O[C@@H]2O[C@@]3(C)CC[C@H]4[C@H](C)CC[C@@H]1[C@@]24OO3 [ARTENIMOL] | 9.81 | 30.1 | – | – | 50.2 | 76.2 | < 1 | 49.1 | 95.4 | < 1 | 8.85 | 5.48 | –
